TGI and GI50 data for 12 molecules are collected here from PubChem BioAssay (NCI).

Some test systems named below: SK-MEL-28 melanoma; 786-0 renal; OVCAR-4 ovarian; HCT-116 colon; MALME-3M melanoma; SF-268 CNS; A549 NSCLC; SK-MEL-5 melanoma; IGROV1 ovarian.
Test in all cases: NCI anticancer screen, dose series, 48 h

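Assay format: 96-well plates, 48-hour exposure. At the GI50, growth is halved. TGI marks complete inhibition of growth.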

As for `Cc1cc(C)nc(NS(=O)(=O)c2ccc(Nc3c4ccc(Cl)cc4nc4c(C(=O)Nc5ccc(S(=O)(=O)N=C(N)N)cc5)cccc34)cc2)n1`, the TGI in the experiment on SK-MEL-28 melanoma, in the experiment with 786-0 renal, in the experiment on OVCAR-4 ovarian, in the experiment with HCT-116 colon, in the experiment with MALME-3M melanoma and with SF-268 CNS was above 100 µM in each case.

As to `COc1ccc2c(c1)OC1=C(C(=O)OC1)C2c1cc(OC)c(OC)c(OC)c1` (stereo not given), the GI50 was 0.667 µM with SK-MEL-28 melanoma; 0.61 µM in the experiment on A549 NSCLC; 0.363 µM in the experiment on SK-MEL-5 melanoma; 0.632 µM with 786-0 renal; 3.18 µM with IGROV1 ovarian; 1.42 µM in the experiment on OVCAR-4 ovarian. Further, the GI50 in the experiment with HCT-116 colon was 0.535 µM; with MALME-3M melanoma it was 0.468 µM; in the experiment with SF-268 CNS, 1.91 µM. Besides, the TGI is above 100 µM in the experiment on SK-MEL-28 melanoma; above 100 µM with A549 NSCLC; 61.2 µM with SK-MEL-5 melanoma; above 100 µM in the experiment on 786-0 renal; above 100 µM with IGROV1 ovarian; above 100 µM in the experiment with OVCAR-4 ovarian. Besides, the TGI was above 100 µM in the experiment with HCT-116 colon, 87.6 µM in the experiment with MALME-3M melanoma and above 100 µM in the experiment on SF-268 CNS.

In the case of `COc1ccc2cc3[n+](cc2c1OC)CCc1cc(O)c(O)cc1-3`, the TGI in the experiment with A549 NSCLC, in the experiment on SK-MEL-5 melanoma, with 786-0 renal, in the experiment with IGROV1 ovarian, with OVCAR-4 ovarian and with HCT-116 colon was above 100 µM throughout. The TGI in the experiment on MALME-3M melanoma and with SF-268 CNS was above 100 µM in each case.

With `CC[O-].CC[O-].O=C1C(c2ccccc2)=C([O-])c2ccccc21.O=C1C(c2ccccc2)=C([O-])c2ccccc21.[Ti+4]`, the GI50 in the experiment on SK-MEL-28 melanoma, in the experiment on A549 NSCLC, with SK-MEL-5 melanoma, with 786-0 renal, in the experiment on IGROV1 ovarian and in the experiment with OVCAR-4 ovarian was above 100 µM each time. The GI50 in the experiment on HCT-116 colon, in the experiment on MALME-3M melanoma and in the experiment with SF-268 CNS was above 100 µM throughout. Moreover, the TGI in the experiment on SK-MEL-28 melanoma, in the experiment on A549 NSCLC, with SK-MEL-5 melanoma, with 786-0 renal, in the experiment on IGROV1 ovarian and in the experiment with OVCAR-4 ovarian was above 100 µM in each case. Also, the TGI with HCT-116 colon, in the experiment on MALME-3M melanoma and with SF-268 CNS was above 100 µM throughout.

In the case of `CCC[CH2][Sn]([CH2]CCC)([O]C(=O)C(N)CSC)[O]C(=O)C(N)CSC` (stereo not given), the GI50 in the experiment on SK-MEL-28 melanoma was 5.86 µM; in the experiment with A549 NSCLC, 27.7 µM; with SK-MEL-5 melanoma it was 11.6 µM; with 786-0 renal it was 8.14 µM; with IGROV1 ovarian, 17.8 µM; with OVCAR-4 ovarian, 13 µM. The results for the GI50 with HCT-116 colon, in the experiment with MALME-3M melanoma and in the experiment on SF-268 CNS were 11.6 µM, 7.19 µM and 4.06 µM, respectively. The TGI in the experiment on SK-MEL-28 melanoma was 18.2 µM; in the experiment with A549 NSCLC it was above 79.7 µM; in the experiment with SK-MEL-5 melanoma, 25 µM; in the experiment on 786-0 renal, 21.8 µM; in the experiment with IGROV1 ovarian it was 34.2 µM; in the experiment with OVCAR-4 ovarian, 26.1 µM. For the same molecule, the TGI with HCT-116 colon was determined as 24.7 µM; with MALME-3M melanoma, 48.7 µM; in the experiment with SF-268 CNS, 11.3 µM.

Take `Cc1ccc(NC(=O)CCC/C(CC(=O)c2ccc(Br)cc2)=N/NC(=O)CC#N)cc1`: the TGI in the experiment with SK-MEL-28 melanoma, in the experiment on A549 NSCLC, with SK-MEL-5 melanoma, in the experiment on 786-0 renal, in the experiment on IGROV1 ovarian and with OVCAR-4 ovarian was above 100 µM each time. The TGI in the experiment on HCT-116 colon, in the experiment with MALME-3M melanoma and in the experiment with SF-268 CNS was above 100 µM in each case.

As to `CCCCc1ccc(-n2c3nc(=O)n(C)c(=O)c-3nc3ccccc32)cc1`, the TGI with A549 NSCLC is 22 µM; in the experiment with SK-MEL-5 melanoma it was 3.01 µM; with 786-0 renal it was 32.1 µM; with IGROV1 ovarian, 33.7 µM; in the experiment on OVCAR-4 ovarian, 22 µM; with HCT-116 colon, 25.6 µM. For the same molecule, the TGI with MALME-3M melanoma turned out to be 19.7 µM; in the experiment with SF-268 CNS, 34.1 µM.

As for `COC(=O)C12CC(c3ccccc31)C1C(=O)OC(=O)C12` (stereo not given), the TGI in the experiment with SK-MEL-28 melanoma, with A549 NSCLC, in the experiment on SK-MEL-5 melanoma, with 786-0 renal, with IGROV1 ovarian and in the experiment on OVCAR-4 ovarian was above 100 µM in each case. The TGI in the experiment on HCT-116 colon, in the experiment on MALME-3M melanoma and in the experiment on SF-268 CNS was above 100 µM in each case.

Take `O=C([CH-]C(=O)c1ccccc1)c1ccccc1.O=C([CH-]C(=O)c1ccccc1)c1ccccc1.O=C([CH-]C(=O)c1ccccc1)c1ccccc1.[OH3+].[Y+3]`: the GI50 was 10.8 µM in the experiment with SK-MEL-28 melanoma; 13.2 µM in the experiment on A549 NSCLC; 3.72 µM in the experiment with SK-MEL-5 melanoma; 4.72 µM in the experiment with 786-0 renal; 13.6 µM in the experiment on IGROV1 ovarian; 8.77 µM in the experiment on OVCAR-4 ovarian. Besides, the GI50 was 4.18 µM in the experiment with HCT-116 colon, 14 µM with MALME-3M melanoma and 4.8 µM in the experiment on SF-268 CNS. The TGI with SK-MEL-28 melanoma is 40.2 µM; in the experiment on A549 NSCLC it was 38.9 µM; in the experiment on SK-MEL-5 melanoma, 13.9 µM; in the experiment with 786-0 renal, 21.8 µM; with IGROV1 ovarian it was 62.4 µM; in the experiment with OVCAR-4 ovarian, 46 µM. Further, the TGI with HCT-116 colon turned out to be 18.3 µM; in the experiment with MALME-3M melanoma it was 47.2 µM; in the experiment on SF-268 CNS it was 31 µM.

As for `O=c1[nH]c2c3ccccc3ccc2c2cc3c(cc12)OCO3`, the TGI in the experiment with SK-MEL-28 melanoma, in the experiment on A549 NSCLC, in the experiment on SK-MEL-5 melanoma, in the experiment with 786-0 renal, in the experiment on IGROV1 ovarian and in the experiment on OVCAR-4 ovarian was above 100 µM in each case. The TGI in the experiment with HCT-116 colon, in the experiment on MALME-3M melanoma and with SF-268 CNS was above 100 µM in each case.

For the molecule `Cc1ccc(/C=C/C(=O)c2sc(-c3cccnc3)nc2C)cc1`, the TGI with A549 NSCLC, in the experiment on SK-MEL-5 melanoma, in the experiment with 786-0 renal, with IGROV1 ovarian and in the experiment on MALME-3M melanoma was above 100 µM each time.

With `O=C(O)CC12C3C4C5C3C1C5C42` (stereo not given), the TGI with SK-MEL-28 melanoma, in the experiment with A549 NSCLC, with SK-MEL-5 melanoma, in the experiment with 786-0 renal, in the experiment on IGROV1 ovarian and with OVCAR-4 ovarian was above 100 µM each time. For the same molecule, the TGI in the experiment with HCT-116 colon, in the experiment with MALME-3M melanoma and in the experiment on SF-268 CNS was above 100 µM throughout.
